Measured values reported in the supplement of paper PMC10949913.
Values joined by “and” are separate entries in the source; they are usually repeats but may differ in a detail not shown here. Equal values may be shown once.

Legend:
Test in all cases: area under concentration-response curve (viability) (AUC (a.u.)); higher = less active
Conditions in all cases: 48 h
CU-ACC1 = tested on: CU-ACC1
Outline: (§1)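 AC50 and area under the curve values derive from fitted concentration-response curves, restricted to inhibitory or non-responding curve classes. The curves came from three adrenocortical carcinoma cell lines in 1,536-well plates, each receiving 23 nL of every library compound at 11 concentrations. Viability was read by CellTiter-Glo luminescence after 48 h, normalised per plate to vehicle and empty-well controls.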

CU-ACC2 = tested on: CU-ACC2
Outline: as §1

NCI-H295R = tested on: NCI-H295R
Outline: as §1

## COc1ccc([S+](=O)([O-])N2CCc3cccc(-c4ccncc4)c32)cc1
CU-ACC1
  area under concentration-response curve: 576
CU-ACC2
  area under concentration-response curve: 563
NCI-H295R
  area under concentration-response curve: 472

## CC(C)C[C@H](NC(=O)[C@@H](O)[C@H](N)Cc1ccccc1)C(=O)O
CU-ACC1
  area under concentration-response curve: 459
CU-ACC2
  area under concentration-response curve: 571
NCI-H295R
  area under concentration-response curve: 494

## OC[C@H]1O[C@@H](S[C@@H]2O[C@H](CO)[C@H](O)[C@H](n3cc(-c4cccc(F)c4)nn3)[C@H]2O)[C@H](O)[C@@H](n2cc(-c3cccc(F)c3)nn2)[C@H]1O
CU-ACC1
  area under concentration-response curve: 507
CU-ACC2
  area under concentration-response curve: 590
NCI-H295R
  area under concentration-response curve: 547

## Nc1nc(OCc2cc(Br)cs2)c2[nH]cnc2n1
CU-ACC1
  area under concentration-response curve: 516
CU-ACC2
  area under concentration-response curve: 616
NCI-H295R
  area under concentration-response curve: 552

## CC(=O)N1c2ccc(-c3ccc(C(=O)O)cc3)cc2[C@H](Nc2ccc(Cl)cc2)C[C@@H]1C
CU-ACC1
  area under concentration-response curve: 380
CU-ACC2
  area under concentration-response curve: 548
NCI-H295R
  area under concentration-response curve: 497

## O=[S+]([O-])(c1cccc2cnccc12)N1CCCNCC1
CU-ACC1
  area under concentration-response curve: 502
CU-ACC2
  area under concentration-response curve: 560
NCI-H295R
  area under concentration-response curve: 534

## CCCc1cc(C(N)=S)ccn1
CU-ACC1
  area under concentration-response curve: 587
CU-ACC2
  area under concentration-response curve: 649
NCI-H295R
  area under concentration-response curve: 581

## CC(N[C@H]1C[C@@H]1c1ccccc1)c1ccc2c(c1)OCCO2 (stereo not given in full)
CU-ACC1
  area under concentration-response curve: 432
CU-ACC2
  area under concentration-response curve: 453
NCI-H295R
  area under concentration-response curve: 432

## C[C@H]1CC2[C@@H]3CCC/4=C/C(=O)/C=C\[C@]4(C)[C@@]3(F)[C@@H](O)C[C@]2(C)[C@@]1(O)C(=O)CO (stereo not given in full)
CU-ACC1
  area under concentration-response curve: 477
CU-ACC2
  area under concentration-response curve: 572
NCI-H295R
  area under concentration-response curve: 551

## CCN1\C=C(\C(O)=O)C(=O)C2=C1C=C(N3CCNCC3)C(=C2)F
CU-ACC1
  area under concentration-response curve: 356
CU-ACC2
  area under concentration-response curve: 397
NCI-H295R
  area under concentration-response curve: 393

## CC1(C)CCC(=C(CN2CCN(CC2)C3=CC=C(C=C3)C(=O)N[S+]([O-])(=O)C4=CC(=C(N[C@H](CCN5CCOCC5)CSC6=CC=CC=C6)C=C4)[S+]([O-])(=O)C(F)(F)F)\C1)/C7=CC=C(Cl)C=C7
CU-ACC1
  area under concentration-response curve: 439
CU-ACC2
  area under concentration-response curve: 373
NCI-H295R
  area under concentration-response curve: 463

## C[S+](=O)([O-])OCCCCO[S+](C)(=O)[O-]
CU-ACC1
  area under concentration-response curve: 463
CU-ACC2
  area under concentration-response curve: 514
NCI-H295R
  area under concentration-response curve: 507

## CN1CCN(CC1)C2=C(NC(=O)C/3=C/NC(=O)/C=C3C(F)(F)F)C=C(C=C2)C4=CC(=CC=C4)CN5CCOCC5
CU-ACC1
  area under concentration-response curve: 508
CU-ACC2
  area under concentration-response curve: 610
NCI-H295R
  area under concentration-response curve: 514

## COc1ccc(-c2cc(=O)c3c(O)cc(O)cc3o2)cc1O
CU-ACC1
  area under concentration-response curve: 452
CU-ACC2
  area under concentration-response curve: 447
NCI-H295R
  area under concentration-response curve: 437

## O=C(NOCC(O)CO)c1ccc(F)c(F)c1Nc1ccc(I)cc1F (stereo not given)
CU-ACC1
  area under concentration-response curve: 329
CU-ACC2
  area under concentration-response curve: 459
NCI-H295R
  area under concentration-response curve: 488

## CCCC1=N[N](C)C2=C1\N=C(/NC2=O)C3=CC(=CC=C3OCC)[S+]([O-])(=O)N4CCN(C)CC4
CU-ACC1
  area under concentration-response curve: 561
CU-ACC2
  area under concentration-response curve: 610
NCI-H295R
  area under concentration-response curve: 539

## CC(N)C12CC3CC(CC(C3)C1)C2 (stereo not given)
CU-ACC1
  area under concentration-response curve: 507
CU-ACC2
  area under concentration-response curve: 523
NCI-H295R
  area under concentration-response curve: 494

## CC(COc1ccccc1)N(CCCl)Cc1ccccc1 (stereo not given)
CU-ACC1
  area under concentration-response curve: 549
CU-ACC2
  area under concentration-response curve: 653
NCI-H295R
  area under concentration-response curve: 584

## CCC(C)N1\N=C/N(C1=O)C2=CC=C(C=C2)N3CCN(CC3)C4=CC=C(OC[C@H]5CO[C@@](C[N]6C=NC=N6)(O5)C7=CC=C(Cl)C=C7Cl)C=C4 (stereo not given in full)
CU-ACC1
  area under concentration-response curve: 556
CU-ACC2
  area under concentration-response curve: 676
NCI-H295R
  area under concentration-response curve: 574

## COc1ccc([C@@H](O)[C@@H](C)Oc2ccc([C@H]3O[C@H](c4ccc(O[C@H](C)[C@H](O)c5ccc(OC)c(OC)c5)c(OC)c4)[C@H](C)[C@H]3C)cc2OC)cc1OC
CU-ACC1
  area under concentration-response curve: 269
CU-ACC2
  area under concentration-response curve: 575
NCI-H295R
  area under concentration-response curve: 479

## CC(C)(C)c1cc(C(=O)O)c(NC(=O)Nc2ccc3[nH]ncc3c2)s1
CU-ACC1
  area under concentration-response curve: 551
CU-ACC2
  area under concentration-response curve: 614
NCI-H295R
  area under concentration-response curve: 582

## COC1=CC(=CC(=C1CN(C)C)OC)\C2=C\N(C)C(=O)C3=C2C=CN=C3
CU-ACC1
  area under concentration-response curve: 500
CU-ACC2
  area under concentration-response curve: 578
NCI-H295R
  area under concentration-response curve: 479

## CCC/1=C(/NC2=C(C=N[N]2C1=O)C#N)C3=CC=CC=C3C
CU-ACC1
  area under concentration-response curve: 550 and 493
CU-ACC2
  area under concentration-response curve: 577 and 487
NCI-H295R
  area under concentration-response curve: 552 and 522

## Nc1nccn2c1c(-c1cc3cccc(Cl)c3[nH]1)nc2[C@H]1CC[C@H](C(=O)O)CC1
CU-ACC1
  area under concentration-response curve: 498
CU-ACC2
  area under concentration-response curve: 589
NCI-H295R
  area under concentration-response curve: 536

## COC(=O)/C=C/C(=O)OC
CU-ACC1
  area under concentration-response curve: 525
CU-ACC2
  area under concentration-response curve: 608
NCI-H295R
  area under concentration-response curve: 550

## O=C(c1ccc(N[S+](=O)([O-])c2cccc3cccnc23)cc1)N1CCN(CC2CC2)CC1
CU-ACC1
  area under concentration-response curve: 485
CU-ACC2
  area under concentration-response curve: 486
NCI-H295R
  area under concentration-response curve: 527

## CC1(C)S[C@H]2[C@H](NC(=O)[C@@H](N)c3ccc(O)cc3)C(=O)N2[C@H]1C(=O)O
CU-ACC1
  area under concentration-response curve: 511
CU-ACC2
  area under concentration-response curve: 597
NCI-H295R
  area under concentration-response curve: 545

## S=P(N1CC1)(N1CC1)N1CC1
CU-ACC1
  area under concentration-response curve: 496
CU-ACC2
  area under concentration-response curve: 590
NCI-H295R
  area under concentration-response curve: 562

## OC[C@H]1O[C@H]([C@H](O)[C@@H]1O)N2/C=C\C=N/C2=O
CU-ACC1
  area under concentration-response curve: 525
CU-ACC2
  area under concentration-response curve: 609
NCI-H295R
  area under concentration-response curve: 583

## C\C1=C(\C=C(\C#N)C(=O)N1)C2=CC=NC=C2
CU-ACC1
  area under concentration-response curve: 532
CU-ACC2
  area under concentration-response curve: 515
NCI-H295R
  area under concentration-response curve: 543

## CCCCNc1ncc2c(-c3ccc(CN4CCN(C)CC4)cc3)cn(C3CCC(O)CC3)c2n1 (stereo not given)
CU-ACC1
  area under concentration-response curve: 513
CU-ACC2
  area under concentration-response curve: 585
NCI-H295R
  area under concentration-response curve: 527

## CCO[C@@H]1OC(=O)C[C@@H]1NC(=O)[C@@H]1CCCN2C(=O)CC[C@H](NC(=O)c3nccc4ccccc34)C(=O)N12
CU-ACC1
  area under concentration-response curve: 568
CU-ACC2
  area under concentration-response curve: 594
NCI-H295R
  area under concentration-response curve: 553

## COC1=CC=C2/C3=N/CCN3\C(=N/C2=C1OC)NC(=O)C4=CC=CN=C4
CU-ACC1
  area under concentration-response curve: 662
CU-ACC2
  area under concentration-response curve: 698
NCI-H295R
  area under concentration-response curve: 619

## C#C[C@]1(O)CC[C@H]2[C@@H]3CCc4cc(O)ccc4[C@H]3CC[C@@]21C
CU-ACC1
  area under concentration-response curve: 525
CU-ACC2
  area under concentration-response curve: 611
NCI-H295R
  area under concentration-response curve: 538

## CN1N(C2=CC=CC=C2)C(=O)C(=C1/C3=CC=CC=C3)/C(=O)C4=CC=C(C)C(=C4N)C5=CC=C6N=C(C)C=CC6=C5
CU-ACC1
  area under concentration-response curve: 531
CU-ACC2
  area under concentration-response curve: 634
NCI-H295R
  area under concentration-response curve: 553

## ClC1=CC=C2N/C3=N/C(=O)CN3CC2=C1Cl
CU-ACC1
  area under concentration-response curve: 519
CU-ACC2
  area under concentration-response curve: 626
NCI-H295R
  area under concentration-response curve: 542

## CN1C2CCC1CC(OC(=O)C(CO)c1ccccc1)C2 (stereo not given)
CU-ACC1
  area under concentration-response curve: 408
CU-ACC2
  area under concentration-response curve: 396
NCI-H295R
  area under concentration-response curve: 396

## OC[C@H]1OCC(O1)[N@@]2C=CC(N)=NC2=O (stereo not given in full)
CU-ACC1
  area under concentration-response curve: 423
CU-ACC2
  area under concentration-response curve: 451
NCI-H295R
  area under concentration-response curve: 494

## COc1nc(C)cnc1N[S+](=O)([O-])c1cccnc1-c1ccc(-c2nnco2)cc1
CU-ACC1
  area under concentration-response curve: 520
CU-ACC2
  area under concentration-response curve: 600
NCI-H295R
  area under concentration-response curve: 509

## COC(=O)[C@@H](N)CCCNC(=N)N[N+](=O)[O-]
CU-ACC1
  area under concentration-response curve: 520
CU-ACC2
  area under concentration-response curve: 610
NCI-H295R
  area under concentration-response curve: 557
